Test results published in the NIST ThermoML archive (doi:10.1021/je3010535).
Several values for one entry are separate records, joined by “and”; a condition that tells them apart may be missing. Equal values may be shown once. Numbers after ± are expanded uncertainties.

Assay: Henry's Law constant (molality scale); of the first substance listed, at infinite dilution; xn = mol fraction of the nth substance listed
Details: Liquid, Chromatography, x1 = 0

Row | Henry's Law constant (273.25 K) | Henry's Law constant (298.15 K) | Henry's Law constant (311.15 K) | Henry's Law constant (332.15 K) | SMILES | Henry's Law constant (274.15 K) | Henry's Law constant (294.65 K) | Henry's Law constant (296.15 K) | Henry's Law constant (310.15 K) | Henry's Law constant (320.15 K) | Henry's Law constant (331.15 K) | Henry's Law constant (333.15 K) | Henry's Law constant (313.15 K) | Henry's Law constant (326.15 K)
1 | – | – | – | – | Cc1cccc2ccccc12 [1-methylnaphthalene] + O | 3.74 ± 1.1 kPa·kg/mol | 23.4 kPa·kg/mol and 13.3 kPa·kg/mol | 27.8 ± 8.3 kPa·kg/mol | 74 ± 22 kPa·kg/mol | 87.9 ± 26 kPa·kg/mol | 153 ± 46 kPa·kg/mol | 150 ± 45 kPa·kg/mol | – | –
2 | – | – | – | – | CC=C(Cl)Cl [1,1-dichloro-1-propene] + O | 556 ± 170 kPa·kg/mol | 1480 kPa·kg/mol and 1360 kPa·kg/mol | 1460 ± 440 kPa·kg/mol | – | – | – | – | 3190 ± 960 kPa·kg/mol | 5570 ± 1700 kPa·kg/mol
3 | – | – | – | – | CC(Cl)(Cl)Cl [1,1,1-trichloroethane] + O | 484 ± 150 kPa·kg/mol | 1410 kPa·kg/mol and 1210 kPa·kg/mol | 1430 ± 430 kPa·kg/mol | – | – | – | – | 2680 ± 800 kPa·kg/mol | 4510 ± 1400 kPa·kg/mol
4 | – | – | – | – | FC(F)(Cl)C(F)(Cl)Cl [1,1,2-trichloro-1,2,2-trifluoroethane] + O | 1070 ± 320 kPa·kg/mol | – | – | – | – | – | – | 16800 ± 5000 kPa·kg/mol | 20100 ± 6000 kPa·kg/mol
5 | 0.088 kPa·kg/mol | 2.14 kPa·kg/mol | 1.19 kPa·kg/mol | 22.9 kPa·kg/mol | CC(C)O [propan-2-ol] + O | – | – | – | – | – | – | – | – | –
6 | – | – | – | – | CC(Cl)CCl (stereo unspecified) [1,2-dichloropropane] + O | 70.7 ± 21 kPa·kg/mol | 217 kPa·kg/mol and 198 kPa·kg/mol | 225 ± 67 kPa·kg/mol | 418 ± 130 kPa·kg/mol | – | 1210 ± 360 kPa·kg/mol | – | – | 699 ± 210 kPa·kg/mol
7 | – | – | – | – | CC(Cl)Cl [1,1-dichloroethane] + O | 188 ± 56 kPa·kg/mol | – | – | – | – | – | – | 953 ± 290 kPa·kg/mol | 1560 ± 470 kPa·kg/mol
8 | – | – | – | – | FC(F)(Cl)Cl [dichlorodifluoromethane] + O | 1660 ± 500 kPa·kg/mol | – | – | – | – | – | – | 40000 ± 12000 kPa·kg/mol | 22600 ± 6800 kPa·kg/mol
9 | 0.055 ± 0.017 kPa·kg/mol | 1.25 ± 0.37 kPa·kg/mol | 3.19 ± 0.96 kPa·kg/mol | 6.96 ± 2.1 kPa·kg/mol | CC(C)(C)O [2-methylpropan-2-ol] + O | – | – | – | – | – | – | – | – | –
10 | – | – | – | – | CCC#N [propanenitrile] + O | 0.302 ± 0.091 kPa·kg/mol | 2.3 kPa·kg/mol and 2.2 kPa·kg/mol | 2.78 ± 0.83 kPa·kg/mol | 5.36 ± 1.6 kPa·kg/mol | 11 ± 3.3 kPa·kg/mol | 14 ± 4.2 kPa·kg/mol | – | – | –
11 | – | – | – | – | S=C=S [carbon disulfide] + O | 682 ± 200 kPa·kg/mol | – | – | – | – | – | – | 2930 ± 880 kPa·kg/mol | 5690 ± 1700 kPa·kg/mol
12 | – | – | – | – | CCOCC [diethyl ether] + O | 16 ± 5 kPa·kg/mol | 68 kPa·kg/mol and 70 kPa·kg/mol | 77 ± 23 kPa·kg/mol | 206 ± 62 kPa·kg/mol | 427 ± 130 kPa·kg/mol | 803 ± 240 kPa·kg/mol | – | – | –
13 | – | – | – | – | CC(C)(Cl)Cl [2,2-dichloropropane] + O | 423 ± 170 kPa·kg/mol | – | – | – | – | – | – | 3280 ± 1300 kPa·kg/mol | 36600 ± 15000 kPa·kg/mol
14 | 0.0797 ± 0.032 kPa·kg/mol | 1.91 ± 0.76 kPa·kg/mol | 4.09 ± 1.6 kPa·kg/mol | 100 ± 40 kPa·kg/mol | CCCCC(CC)CO (stereo unspecified) [2-ethyl-1-hexanol] + O | – | – | – | – | – | – | – | – | –
15 | – | – | – | – | ClCCl [dichloromethane] + O | 85.1 ± 26 kPa·kg/mol | 222 kPa·kg/mol and 214 kPa·kg/mol | 250 ± 75 kPa·kg/mol | – | – | – | – | 523 ± 160 kPa·kg/mol | 686 ± 210 kPa·kg/mol
16 | – | – | – | – | CC(C)=O [acetone] + O | 0.231 ± 0.092 kPa·kg/mol | 1.44 kPa·kg/mol and 1.26 kPa·kg/mol | 1.13 ± 0.45 kPa·kg/mol | 7.55 ± 3 kPa·kg/mol | 11.5 ± 4.6 kPa·kg/mol | 16 ± 6.4 kPa·kg/mol | 41.1 ± 16 kPa·kg/mol | – | –
17 | – | – | – | – | CCCc1ccccc1 [propylbenzene] + O | 182 kPa·kg/mol | – | 505 kPa·kg/mol | 412 kPa·kg/mol | – | 1920 kPa·kg/mol | – | 1900 kPa·kg/mol | 3160 kPa·kg/mol

Row | Henry's Law constant (273.25 K) | Henry's Law constant (298.15 K) | Henry's Law constant (311.15 K) | Henry's Law constant (332.15 K) | SMILES | Henry's Law constant (274.15 K) | Henry's Law constant (294.65 K) | Henry's Law constant (296.15 K) | Henry's Law constant (310.15 K) | Henry's Law constant (320.15 K) | Henry's Law constant (331.15 K) | Henry's Law constant (333.15 K) | Henry's Law constant (313.15 K) | Henry's Law constant (326.15 K)
18 | – | – | – | – | ClCC(Br)CBr (stereo unspecified) [1,2-dibromo-3-chloropropane] + O | 1.28 ± 0.38 kPa·kg/mol | 7.76 kPa·kg/mol and 9.37 kPa·kg/mol | 11.8 ± 3.5 kPa·kg/mol | 28.1 ± 8.4 kPa·kg/mol | 49.7 ± 15 kPa·kg/mol | 101 ± 30 kPa·kg/mol | 133 ± 40 kPa·kg/mol | – | –
19 | – | – | – | – | O=[N+]([O-])c1ccccc1 [nitrobenzene] + O | 0.175 ± 0.053 kPa·kg/mol | 1.06 kPa·kg/mol and 1.11 kPa·kg/mol | 2.58 ± 0.78 kPa·kg/mol | 4.13 ± 1.2 kPa·kg/mol | 8.57 ± 2.6 kPa·kg/mol | 17.6 ± 5.3 kPa·kg/mol | – | – | –
20 | – | – | – | – | CCC(C)=O [butanone] + O | 0.416 ± 0.12 kPa·kg/mol | 1.72 kPa·kg/mol and 2.37 kPa·kg/mol | 2.62 ± 0.79 kPa·kg/mol | 8.13 ± 2.4 kPa·kg/mol | 15.3 ± 4.6 kPa·kg/mol | 43.9 ± 13 kPa·kg/mol | 62 ± 19 kPa·kg/mol | – | –
21 | – | 0.223 ± 0.067 kPa·kg/mol | 0.665 ± 0.2 kPa·kg/mol | 3.28 ± 0.98 kPa·kg/mol | COCCO [2-methoxyethan-1-ol] + O | – | – | – | – | – | – | – | – | –
22 | – | – | – | – | ClC(Cl)=C(Cl)C(Cl)=C(Cl)Cl [1,1,2,3,4,4-hexachloro-1,3-butadiene] + O | 145 kPa·kg/mol | – | 287 kPa·kg/mol | 366 kPa·kg/mol | – | – | – | 2180 kPa·kg/mol | 3830 kPa·kg/mol
23 | – | – | – | – | CCCCc1ccccc1 [butylbenzene] + O | 174 kPa·kg/mol | – | 458 kPa·kg/mol | 481 kPa·kg/mol | – | 1280 kPa·kg/mol | – | 2290 kPa·kg/mol | 3470 kPa·kg/mol
24 | – | – | – | – | Clc1ccccc1Cl [1,2-dichlorobenzene] + O | 41.1 ± 12 kPa·kg/mol | 102 kPa·kg/mol and 115 kPa·kg/mol | 119 ± 36 kPa·kg/mol | 208 ± 62 kPa·kg/mol | 350 ± 100 kPa·kg/mol | 510 ± 150 kPa·kg/mol | – | – | –
25 | – | – | – | – | C=C(Cl)Cl [1,1-dichloroethene] + O | 787 ± 240 kPa·kg/mol | – | – | – | – | – | – | 4460 ± 1300 kPa·kg/mol | 10500 ± 3200 kPa·kg/mol
26 | – | – | – | – | C=CCl [chloroethene] + O | 1140 ± 340 kPa·kg/mol | – | – | – | – | – | – | 4200 ± 1300 kPa·kg/mol | 6500 ± 1900 kPa·kg/mol
27 | – | – | – | – | Clc1cccc(Cl)c1Cl [1,2,3-trichlorobenzene] + O | 17.8 ± 5.3 kPa·kg/mol | 56.4 kPa·kg/mol and 54.8 kPa·kg/mol | 63 ± 19 kPa·kg/mol | 124 ± 37 kPa·kg/mol | 199 ± 60 kPa·kg/mol | 324 ± 97 kPa·kg/mol | – | – | –
28 | – | – | – | – | ClC(Cl)Cl [trichloromethane] + O | 107 ± 32 kPa·kg/mol | 301 kPa·kg/mol and 324 kPa·kg/mol | 363 ± 110 kPa·kg/mol | 782 ± 230 kPa·kg/mol | – | 1770 ± 530 kPa·kg/mol | – | 628 ± 190 kPa·kg/mol | 1170 ± 350 kPa·kg/mol
29 | – | – | – | – | CBr [bromomethane] + O | 399 ± 120 kPa·kg/mol | – | – | – | – | – | – | 1120 ± 340 kPa·kg/mol | 1920 ± 580 kPa·kg/mol
30 | – | – | – | – | ClC=C(Cl)Cl [trichloroethene] + O | 249 ± 75 kPa·kg/mol | 711 kPa·kg/mol and 721 kPa·kg/mol | 691 ± 210 kPa·kg/mol | 2110 ± 630 kPa·kg/mol | – | 4620 ± 1400 kPa·kg/mol | – | 1670 ± 500 kPa·kg/mol | 2630 ± 790 kPa·kg/mol
31 | – | – | – | – | Cl/C=C\Cl [(Z)-1,2-dichloroethene] + O | 131 ± 39 kPa·kg/mol | 317 kPa·kg/mol and 330 kPa·kg/mol | 405 ± 120 kPa·kg/mol | – | – | – | – | 636 ± 190 kPa·kg/mol | 1110 ± 330 kPa·kg/mol
32 | – | – | – | – | C1COCCO1 [1,4-dioxane] + O | 0.0629 ± 0.019 kPa·kg/mol | 0.482 kPa·kg/mol and 0.35 kPa·kg/mol | 0.419 ± 0.13 kPa·kg/mol | 0.84 ± 0.25 kPa·kg/mol | 2 ± 0.6 kPa·kg/mol | 3.92 ± 1.2 kPa·kg/mol | – | – | –
33 | – | – | – | – | ClCCCl [1,2-dichloroethane] + O | 42.9 ± 13 kPa·kg/mol | 98.2 kPa·kg/mol and 102 kPa·kg/mol | 105 ± 32 kPa·kg/mol | 211 ± 63 kPa·kg/mol | 389 ± 120 kPa·kg/mol | 517 ± 160 kPa·kg/mol | – | – | –
34 | – | – | – | – | c1ccc2ccccc2c1 [naphthalene] + O | 5 ± 1.5 kPa·kg/mol | 31.7 kPa·kg/mol and 17.8 kPa·kg/mol | 34.7 ± 10 kPa·kg/mol | 90.2 ± 27 kPa·kg/mol | 116 ± 35 kPa·kg/mol | 196 ± 59 kPa·kg/mol | 278 ± 83 kPa·kg/mol | – | –

Row | SMILES | Henry's Law constant (273.25 K) | Henry's Law constant (298.15 K) | Henry's Law constant (311.15 K) | Henry's Law constant (332.15 K) | Henry's Law constant (274.15 K) | Henry's Law constant (294.65 K) | Henry's Law constant (296.15 K) | Henry's Law constant (310.15 K) | Henry's Law constant (320.15 K) | Henry's Law constant (331.15 K) | Henry's Law constant (333.15 K) | Henry's Law constant (313.15 K) | Henry's Law constant (326.15 K)
35 | ClCc1ccccc1 [(chloromethyl)benzene] + O | 7.81 ± 2.3 kPa·kg/mol | 50.6 ± 15 kPa·kg/mol | 139 ± 42 kPa·kg/mol | – | – | – | – | – | – | – | – | – | –
